Test systems include NCI-H226 lung; OVCAR-5 ovarian; RPMI-8226 leukemia; SF-539 CNS; COLO 205 colon; HCT-116 colon; HCC-2998 colon; A498 renal; HL-60(TB) leukemia; ACHN renal.
Experiment in all cases: inhibition of tumour cell growth, NCI panel, 48 h

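These data come from cells grown in 96-well plates and exposed to compound for 48 hours at five concentrations. Abbreviation: GI50, concentration required for 50% inhibition of growth. TGI is the concentration that stops growth completely.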

Turning to `Cc1nc(C(N)=S)sc1C(=O)/C=C/c1c(O)ccc2ccccc12`, the TGI in the assay on NCI-H226 lung is over 100 µM; in the assay with OVCAR-5 ovarian, over 100 µM; in the assay on RPMI-8226 leukemia, over 93.5 µM; in the assay with SF-539 CNS it was over 100 µM; in the assay with COLO 205 colon, over 100 µM; in the assay on HCT-116 colon, over 100 µM. The TGI was over 100 µM in the assay on HCC-2998 colon, over 100 µM with A498 renal, 65.3 µM in the assay on HL-60(TB) leukemia and over 100 µM in the assay on ACHN renal.

`COC(=O)C1(C)Cc2cc(OC(C)=O)c(OC(C)=O)cc2N1` (stereo not drawn): the GI50 was 14.8 µM with NCI-H226 lung; 20 µM with OVCAR-5 ovarian; 1.87 µM with RPMI-8226 leukemia; 15.4 µM in the assay with SF-539 CNS; 6.49 µM with COLO 205 colon; 3.96 µM in the assay on HCT-116 colon. The GI50 was 17.8 µM with HCC-2998 colon, 37.8 µM with A498 renal, 2.42 µM with HL-60(TB) leukemia and 3.42 µM in the assay with ACHN renal. Also, the TGI in the assay on NCI-H226 lung was 60 µM; with OVCAR-5 ovarian, 47 µM; with RPMI-8226 leukemia, 10.6 µM; in the assay with SF-539 CNS, 33.2 µM; in the assay with COLO 205 colon it was over 40.9 µM; with HCT-116 colon, 15.5 µM. Besides, the TGI was 33 µM with HCC-2998 colon, over 90.7 µM with A498 renal, over 24.2 µM in the assay on HL-60(TB) leukemia and 19.9 µM in the assay with ACHN renal.

Consider `CC1(C)CC2C(=O)c3ccccc3NC2c2ccccc21` (stereo not drawn), for which the TGI was over 100 µM with NCI-H226 lung; over 100 µM in the assay with OVCAR-5 ovarian; 14.4 µM in the assay with RPMI-8226 leukemia; over 22.8 µM with SF-539 CNS; 22.1 µM with COLO 205 colon; over 100 µM in the assay with HCT-116 colon. Besides, the TGI was over 100 µM in the assay on HCC-2998 colon, over 100 µM in the assay on A498 renal, 32.6 µM with HL-60(TB) leukemia and over 100 µM in the assay with ACHN renal.

As to `CN(C)C(=O)O[C@H]1CN[C@H](C#Cc2cc3ncnc(Nc4ccc(OCc5cccc(F)c5)c(Cl)c4)c3s2)C1`, the GI50 in the assay with NCI-H226 lung was 5.49 µM; with OVCAR-5 ovarian, over 25 µM; with RPMI-8226 leukemia, 4.63 µM; with SF-539 CNS it was 8.16 µM; with COLO 205 colon, over 18.6 µM; in the assay with HCT-116 colon it was 12.1 µM. Besides, the GI50 is 11.3 µM in the assay with HCC-2998 colon, 4.19 µM with A498 renal, 5.22 µM in the assay on HL-60(TB) leukemia and 6.27 µM in the assay with ACHN renal. For the same compound, the TGI in the assay on NCI-H226 lung was 19.2 µM; in the assay with OVCAR-5 ovarian it was over 25 µM; in the assay on RPMI-8226 leukemia, 15.2 µM; in the assay on SF-539 CNS it was over 25 µM; in the assay on COLO 205 colon it was over 25 µM; with HCT-116 colon, over 25 µM. Besides, the TGI in the assay on HCC-2998 colon was over 25 µM; with A498 renal it was 23.3 µM; in the assay with HL-60(TB) leukemia it was 15 µM; with ACHN renal it was over 25 µM.

As for `C=C1C(=O)O[C@H]2[C@H]1CC/C(COC(=O)NCC(C)c1ccc(CC(C)C)cc1)=C\CC[C@@]1(C)O[C@@H]21` (stereo partly drawn), the GI50 was 1.05 µM in the assay with NCI-H226 lung; 3.56 µM with OVCAR-5 ovarian; 0.681 µM in the assay with RPMI-8226 leukemia; 3.71 µM in the assay on SF-539 CNS; 1.3 µM with COLO 205 colon; 0.641 µM in the assay with HCT-116 colon. The GI50 was 2.17 µM with HCC-2998 colon, 4.36 µM in the assay on A498 renal, 0.786 µM with HL-60(TB) leukemia and 0.623 µM with ACHN renal. Further, the TGI in the assay on NCI-H226 lung worked out at 4.59 µM; with OVCAR-5 ovarian, 7.73 µM; in the assay on RPMI-8226 leukemia it was 1.9 µM; in the assay with SF-539 CNS it was 7.71 µM; in the assay on COLO 205 colon, 5.3 µM; in the assay on HCT-116 colon it was 1.32 µM. Further, the TGI with HCC-2998 colon is 6.72 µM; in the assay with A498 renal, 8.68 µM; in the assay with HL-60(TB) leukemia, 2.83 µM; with ACHN renal it was 1.32 µM.

Regarding `O=C1CCCCN1CCCCC#Cc1cccc(C#Cc2cccnc2)c1`, the GI50 in the assay with NCI-H226 lung is 12.9 µM; in the assay on OVCAR-5 ovarian, 17.7 µM; in the assay with RPMI-8226 leukemia it was 4.64 µM; in the assay with SF-539 CNS, 31.8 µM; with COLO 205 colon, 6.88 µM; in the assay on HCT-116 colon, 4.67 µM. Also, the GI50 in the assay with HCC-2998 colon was 6.52 µM; in the assay on A498 renal, 42.8 µM; with HL-60(TB) leukemia, 16.2 µM; in the assay with ACHN renal it was 9.64 µM. The TGI is 34 µM in the assay with NCI-H226 lung; 41.7 µM in the assay on OVCAR-5 ovarian; 28.7 µM with RPMI-8226 leukemia; over 100 µM in the assay on SF-539 CNS; 21 µM in the assay with COLO 205 colon; 18.4 µM with HCT-116 colon. The TGI with HCC-2998 colon was 23.1 µM; in the assay on A498 renal it was over 100 µM; in the assay with HL-60(TB) leukemia, 70 µM; with ACHN renal, 21.7 µM.

`CC(=O)N1CCC2(c3ccccc3N(C(C)=O)C2c2ccc(O)cc2)C1C(=O)O` (stereo not drawn): the TGI with NCI-H226 lung, in the assay on OVCAR-5 ovarian, with RPMI-8226 leukemia, with SF-539 CNS, in the assay on COLO 205 colon and with HCT-116 colon was over 100 µM throughout. Moreover, the TGI with HCC-2998 colon, in the assay on A498 renal, with HL-60(TB) leukemia and in the assay on ACHN renal was over 100 µM in each case.

As to `CCOC(=O)C(NC(=O)c1nc[nH]c1[N+](=O)[O-])C(C)C` (stereo not drawn), the TGI in the assay with NCI-H226 lung, with RPMI-8226 leukemia, in the assay on SF-539 CNS, with COLO 205 colon, in the assay on HCT-116 colon and with HCC-2998 colon was over 100 µM each time. For the same compound, the TGI with A498 renal, in the assay with HL-60(TB) leukemia and in the assay on ACHN renal was over 100 µM in each case.

In the case of `Cc1cc(N(CCC#N)CCC#N)ccc1/C=C(\NC(=O)/C=C/c1ccccc1)C(=O)NN`, the TGI is over 90.2 µM with NCI-H226 lung; over 100 µM in the assay with OVCAR-5 ovarian; over 100 µM in the assay with RPMI-8226 leukemia; over 100 µM with SF-539 CNS; over 100 µM with COLO 205 colon; over 100 µM in the assay with HCT-116 colon. For the same compound, the TGI with HCC-2998 colon, in the assay on A498 renal, in the assay with HL-60(TB) leukemia and in the assay with ACHN renal was over 100 µM each time.

Turning to `CC(NC(=O)N(C)C)NC(=O)N(C)C`, the TGI in the assay with NCI-H226 lung, in the assay with RPMI-8226 leukemia, with SF-539 CNS, in the assay on COLO 205 colon, in the assay with HCT-116 colon and with HCC-2998 colon was over 10 µM in each case. Further, the TGI in the assay with A498 renal, in the assay on HL-60(TB) leukemia and in the assay on ACHN renal was over 10 µM in each case.

The record behind these values is PubChem BioAssay (NCI).
